Columns and labels:
[1] = test system: SKNSH cells; assay: SKNSH (human neuroblastoma) cell proliferation assay (ATPlite); format: cell-based; conditions: SK-N-SH, read-out: Inhibition of Cell Proliferation IC50, SKNSH
Protocol: (§1) Compounds are assessed in a variety of cell based assays. For example BaF3 cells engineered with any of BCR-FMS, BCR-KIT, BCR-FLT3, BCR-NTRK1, BCR-NTRK2, and BCR-NTRK3, are used in cell proliferation assays to assess inhibitory activity of Fms, Kit, Flt-3, TrkA, TrkB, and TrkC, respectively. An MV-4-11 (leukemia) cell proliferation assay is used to assess inhibitory activity in Flt-3, and SKNSH (human neuroblastoma) cell proliferation assay is used to assess efficacy of Fms/Trk inhibitors. Additional cells may be assayed similarly to assess the efficacy of Fms/Trk inhibitors, such as MiaPaCa (human pancreatic cancer) and Capan-1 (human pancreatic carcinoma) cells. Reagent and assay conditions are as follows: • BaF3 cells: • Maintained in RPMI containing 10% FBS, 1% PenStrep, 1% NEAA, and 1% L-Glutamine, supplemented with 1 mg/mL G418 and 5% WEHI-CM (or recombinant murine IL-3). • Confluent cells are split 1:50 to 1:100 every 3-4 days. • MV-4-11 cells: • Maintained in Iscove's Modified Dulbecco's Medium containing 10% FBS. • Confluent cells are split 1:4 every 3-4 days. • SKNSH cells: RPMI containing 10% FBS. On day 1, cells are counted, then centrifuged in a conical tube for 5 minutes at 1000 rpm. The supernatant is removed and cells are re-suspended as follows: • BaF3: resuspend in growth media +1 mg/mL G418 (without WEHFIL-3) to 2×10^5 cells/mL. • MV-4-11: resuspend in growth media to 5×10^5 cells/mL. • SKNSH: resuspend in growth media to 2×10^4 cells/mL. The cells are plated (50 μL, 150 μL for SKNSH cells) in each well of a 96-well dish (Corning 3610) and incubated at 37° C. in 5% CO2 overnight, cells plated to a final concentration of cells as follows: • BaF3: 10,000 cells per well. • MV-4-11: 25,000 cells per well. • SKNSH: 3,000 cells per well. On day 2, compound at a maximum concentration of 5 mM is serially diluted 1:3 for a total of 8 point titration with DMSO as a control. A 1 μL aliquot of each dilution point is added to 249 μL growth media and 50 μL is added to a well containing cells, providing 10 μM compound for the maximum concentration point. The cells are incubated for 3 days at 37° C. in 5% CO2. For SKNSH cells, a 0.75 μL aliquot of appropriate dilution in DMSO is added to 150 μL of cells. On day 5, ATPlite 1 step Luminescence Assay System (Perkin Elmer #6016739) is brought to room temperature along with the cell cultures. ATPlite is added to each well as follows: • BaF3: 25 μL per well. • MV-4-11: 40 μL per well. • SKNSH: 20 μL per well. The cells are incubated at room temperature for 10 minutes, then luminescence is read on Safire reader. The measured luminescence correlates directly with cell number, such that the reading as a function of compound concentration is used to determine the IC50 value.
(§2) It is understood that the results of these assays may vary as assay conditions are varied. Inhibition levels determined under the conditions described herein represent a relative activity for the compounds tested under the specific conditions employed. The cell based assays are likely to show variability due to the complexity of the system and the sensitivity thereof to any changes in the assay conditions. […] Results for compounds that are tested and show substantially no inhibition below the highest tested concentration are represented as “-” in the tables below. In some instances, the compounds were not tested in all of the assays, or assay results were not valid, as indicated by NA in the tables below.

[2] = target: T1, BCR-NTRK1 BaF3 cells (Homo sapiens, UniProt P04629); assay: BaF3 BCR-NTRK1 cell proliferation assay (ATPlite); format: cell-based; conditions: read-out: Inhibition of Cell Proliferation IC50, BCR/BaF3 TrkA
T1 construct: fused on or other part: P11274 (Breakpoint cluster region protein)
Protocol: as §1, §2

T1 sequence (P04629 510-781): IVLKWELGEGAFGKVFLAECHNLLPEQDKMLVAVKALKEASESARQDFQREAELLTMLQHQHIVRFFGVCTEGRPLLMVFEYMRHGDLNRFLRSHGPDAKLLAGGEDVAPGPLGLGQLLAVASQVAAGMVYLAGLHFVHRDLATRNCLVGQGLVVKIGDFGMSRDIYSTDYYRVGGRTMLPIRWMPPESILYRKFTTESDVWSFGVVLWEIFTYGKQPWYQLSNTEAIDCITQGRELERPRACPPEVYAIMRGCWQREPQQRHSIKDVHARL

Row | Structure (SMILES) | IC50 [1] | IC50 [2]
1 | COc1cncc(Nc2ccc(C(=O)c3c[nH]c4ncnc(NCC(F)(F)F)c34)c(F)n2)c1 [Compound P-4103, [2-fluoro-6-[(5-methoxy-3-pyridyl)amino]-3-pyridyl]-[4-(2,2,2-trifluoroethylamino)-7H-pyrrolo[2,3-d]pyrimidin-5-yl]methanone] | > 1000 nM | < 1000 nM
2 | CNc1ncnc2[nH]cc(C(=O)c3ccc(Nc4cncc(OC)c4)nc3F)c12 [Compound P-4108, [2-fluoro-6-[(5-methoxy-3-pyridyl)amino]-3-pyridyl]-[4-(methylamino)-7H-pyrrolo[2,3-d]pyrimidin-5-yl]methanone] | > 1000 nM | < 1000 nM
3 | CC(C)Nc1ncnc2[nH]cc(C(=O)c3ccc(NC4CCCCC4)nc3Cl)c12 [Compound P-4109, [2-chloro-6-(cyclohexylamino)-3-pyridyl]-[4-(isopropylamino)-7H-pyrrolo[2,3-d]pyrimidin-5-yl]methanone] | < 10000 nM | < 1000 nM
4 | CNc1ncnc2[nH]cc(C(=O)c3ccc(NC4CCC(F)(F)CC4)nc3F)c12 [Compound P-4063, [6-[(4,4-difluorocyclohexyl)amino]-2-fluoro-3-pyridyl]-[4-(methylamino)-7H-pyrrolo[2,3-d]pyrimidin-5-yl]methanone] | < 1000 nM | < 10 nM
5 | CCCCNc1ncnc2[nH]cc(C(=O)c3ccc(Nc4ccc(CC)nc4)nc3F)c12 [Compound P-4100, [4-(butylamino)-7H-pyrrolo[2,3-d]pyrimidin-5-yl]-[6-[(6-ethyl-3-pyridyl)amino]-2-fluoro-3-pyridyl]methanone] | < 1000 nM | < 10 nM
6 | CNc1ncnc2[nH]cc(C(=O)c3ccc(NC4CCC(F)(F)CC4)nc3)c12 [Compound P-4089, [6-[(4,4-difluorocyclohexyl)amino]-3-pyridyl]-[4-(methylamino)-7H-pyrrolo[2,3-d]pyrimidin-5-yl]methanone] | < 10000 nM | < 1000 nM
7 | CC(C)Nc1ncnc2[nH]cc(C(=O)c3ccc(NC4CCCCC4)nc3F)c12 [Compound P-4101, [6-(cyclohexylamino)-2-fluoro-3-pyridyl]-[4-(isopropylamino)-7H-pyrrolo[2,3-d]pyrimidin-5-yl]methanone] | < 1000 nM | < 100 nM
8 | CCNc1ncnc2[nH]cc(C(=O)c3ccc(Nc4ccc(C5CC5)nc4)nc3F)c12 [Compound P-4060, [6-[(6-cyclopropyl-3-pyridyl)amino]-2-fluoro-3-pyridyl]-[4-(ethylamino)-7H-pyrrolo[2,3-d]pyrimidin-5-yl]methanone] | < 100 nM | < 10 nM
9 | COc1cncc(Nc2ccc(C(=O)c3c[nH]c4ncnc(NC5CC5)c34)c(F)n2)c1 [Compound P-4107, [4-(cyclopropylamino)-7H-pyrrolo[2,3-d]pyrimidin-5-yl]-[2-fluoro-6-[(5-methoxy-3-pyridyl)amino]-3-pyridyl]methanone] | < 1000 nM | < 100 nM
10 | Fc1cc(Cc2c[nH]c3ncnc(NC4CC4)c23)cnc1NC1CCC(F)(F)CC1 [Compound P-4127, N-cyclopropyl-5-[[6-[(4,4-difluorocyclohexyl)amino]-5-fluoro-3-pyridyl]methyl]-7H-pyrrolo[2,3-d]pyrimidin-4-amine] | < 10000 nM | < 1000 nM
11 | CCCNc1ncnc2[nH]cc(C(=O)c3ccc(Nc4cncc(OC)c4)nc3F)c12 [Compound P-4105, [2-fluoro-6-[(5-methoxy-3-pyridyl)amino]-3-pyridyl]-[4-(propylamino)-7H-pyrrolo[2,3-d]pyrimidin-5-yl]methanone] | < 10000 nM | < 100 nM
12 | CNc1ncnc2[nH]cc(C(=O)c3ccc(Nc4ccc(C5CC5)nc4)nc3F)c12 [Compound P-4094, [6-[(6-cyclopropyl-3-pyridyl)amino]-2-fluoro-3-pyridyl]-[4-(methylamino)-7H-pyrrolo[2,3-d]pyrimidin-5-yl]methanone] | < 1000 nM | < 10 nM
13 | CNc1ncnc2[nH]cc(C(=O)c3ccc(Nc4ccc(C(F)(F)F)nc4)nc3F)c12 [Compound P-4092, [2-fluoro-6-[[6-(trifluoromethyl)-3-pyridyl]amino]-3-pyridyl]-[4-(methylamino)-7H-pyrrolo[2,3-d]pyrimidin-5-yl]methanone] | < 1000 nM | < 10 nM
14 | CCc1ccc(Nc2ccc(C(=O)c3c[nH]c4ncnc(N[C@@H](C)c5ccc(F)cc5)c34)c(F)n2)cn1 [Compound P-4097, [6-[(6-ethyl-3-pyridyl)amino]-2-fluoro-3-pyridyl]-[4-[[(1S)-1-(4-fluorophenyl)ethyl]amino]-7H-pyrrolo[2,3-d]pyrimidin-5-yl]methanone] | < 10000 nM | < 100 nM
15 | O=C(c1ccc(NC2CCC(F)(F)CC2)nc1Cl)c1c[nH]c2ncnc(NC3CC3)c12 [Compound P-4059, [2-chloro-6-[(4,4-difluorocyclohexyl)amino]-3-pyridyl]-[4-(cyclopropylamino)-7H-pyrrolo[2,3-d]pyrimidin-5-yl]methanone] | < 1000 nM | < 1000 nM
16 | COc1cncc(Nc2ccc(C(=O)c3c[nH]c4ncnc(NC(C)C)c34)c(F)n2)c1 [Compound P-4106, [2-fluoro-6-[(5-methoxy-3-pyridyl)amino]-3-pyridyl]-[4-(isopropylamino)-7H-pyrrolo[2,3-d]pyrimidin-5-yl]methanone] | < 1000 nM | < 100 nM
17 | CCc1ccc(Nc2ccc(C(=O)c3c[nH]c4ncnc(NC5CCC(F)(F)CC5)c34)c(F)n2)cn1 [Compound P-4096, [4-[(4,4-difluorocyclohexyl)amino]-7H-pyrrolo[2,3-d]pyrimidin-5-yl]-[6-[(6-ethyl-3-pyridyl)amino]-2-fluoro-3-pyridyl]methanone] | < 10000 nM | < 10 nM
18 | COc1ccc(Nc2ccc(C(=O)c3c[nH]c4ncnc(NC5CC5)c34)c(F)n2)cn1 [Compound P-4126, [4-(cyclopropylamino)-7H-pyrrolo[2,3-d]pyrimidin-5-yl]-[2-fluoro-6-[(6-methoxy-3-pyridyl)amino]-3-pyridyl]methanone] | < 100 nM | < 10 nM
19 | CCc1ccc(Nc2ccc(C(=O)c3c[nH]c4ncnc(NC5CCC5)c34)c(F)n2)cn1 [Compound P-4095, [4-(cyclobutylamino)-7H-pyrrolo[2,3-d]pyrimidin-5-yl]-[6-[(6-ethyl-3-pyridyl)amino]-2-fluoro-3-pyridyl]methanone] | < 1000 nM | < 10 nM
20 | CCC(C)Nc1ncnc2[nH]cc(C(=O)c3ccc(Nc4ccc(OC)nc4)nc3F)c12 (centres unmarked) [Compound P-4078, [2-fluoro-6-[(6-methoxy-3-pyridyl)amino]-3-pyridyl]-[4-(sec-butylamino)-7H-pyrrolo[2,3-d]pyrimidin-5-yl]methanone] | – | < 10 nM
21 | CCCNc1ncnc2[nH]cc(C(=O)c3ccc(Nc4ccc(CC)nc4)nc3F)c12 [Compound P-4122, [6-[(6-ethyl-3-pyridyl)amino]-2-fluoro-3-pyridyl]-[4-(propylamino)-7H-pyrrolo[2,3-d]pyrimidin-5-yl]methanone] | – | < 10 nM
22 | CCc1ccc(Nc2ccc(C(=O)c3c[nH]c4ncnc(NCCOC)c34)c(F)n2)cn1 [Compound P-4119, [6-[(6-ethyl-3-pyridyl)amino]-2-fluoro-3-pyridyl]-[4-(2-methoxyethylamino)-7H-pyrrolo[2,3-d]pyrimidin-5-yl]methanone] | – | < 10 nM

Reference: patent US8901118B2, “Compounds and methods for kinase modulation, and indications therefor” (Plexxikon Inc., priority 2010, dated 2014)
